Values joined by “and” are separate entries in the source; they are usually repeats but may differ in a detail not shown here. Equal entries are not always repeated. After the bases stand the sugars from the 5' end (letter, count) and the backbone: PS all phosphorothioate, else s phosphorothioate and o phosphodiester by linkage. Methylation of C is not given here. k = constrained ethyl (cEt); d = 2'-deoxy (DNA)
Target: MALAT1
Details: ASO, A431, 0.005 µM

## CATGACCCTACTGAAG (sugars k3 d10 k3, PS)
  target mRNA inhibition: 2%

## CATGCAATACTGCAGA (sugars k3 d10 k3, PS)
  target mRNA inhibition: 15%

## CATGCCAGTTACTCCA (sugars k3 d10 k3, PS)
  target mRNA inhibition: 33%

## CATTACCCCAACTAAA (sugars k3 d10 k3, PS)
  target mRNA inhibition: 15%

## CCAAAAGCTCTATACT (sugars k3 d10 k3, PS)
  target mRNA inhibition: 12%

## CCAAATCGCACTGGCT (sugars k3 d10 k3, PS)
  target mRNA inhibition: 16%

## CCAAATTAATGCACTG (sugars k3 d10 k3, PS)
  target mRNA inhibition: 13%

## CCAACCCCCAGTTCAA (sugars k3 d10 k3, PS)
  target mRNA inhibition: 24%

## CCAACTAAGCGAATGG (sugars k3 d10 k3, PS)
  target mRNA inhibition: 18%

## CCAACTGCTTGCAGTC (sugars k3 d10 k3, PS)
  target mRNA inhibition: 25%

## CCAAGAACTAGCACCT (sugars k3 d10 k3, PS)
  target mRNA inhibition: -22%

## CCAAGCACTCATATGC (sugars k3 d10 k3, PS)
  target mRNA inhibition: 12%

## CCAAGCCAAGCCGCCT (sugars k3 d10 k3, PS)
  target mRNA inhibition: 5%

## CCAATACTTGTCTTAG (sugars k3 d10 k3, PS)
  target mRNA inhibition: 64% and 52%

## CCACAACAATTTAGAG (sugars k3 d10 k3, PS)
  target mRNA inhibition: -27%

## CCACAAGGATCCAAGC (sugars k3 d10 k3, PS)
  target mRNA inhibition: -20%

## CCACGGCCCGCACGGA (sugars k3 d10 k3, PS)
  target mRNA inhibition: 6%

## CCACTTGCCAGTTTAA (sugars k3 d10 k3, PS)
  target mRNA inhibition: 29%

## CCAGTCTACAAGTTAC (sugars k3 d10 k3, PS)
  target mRNA inhibition: 50% and 56%

## CCAGTTCAATACTTTC (sugars k3 d10 k3, PS)
  target mRNA inhibition: 13%

## CCATAACTGATCTGAC (sugars k3 d10 k3, PS)
  target mRNA inhibition: 13%

## CCATAATTGTAGTTAA (sugars k3 d10 k3, PS)
  target mRNA inhibition: 7%

## CCCAAAAGCTCTATAC (sugars k3 d10 k3, PS)
  target mRNA inhibition: 6%

## CCCAACACTGAACTAC (sugars k3 d10 k3, PS)
  target mRNA inhibition: 19%

## CCCAACCGTAACAGGC (sugars k3 d10 k3, PS)
  target mRNA inhibition: 22%

## CCCACAAACTTGCCAT (sugars k3 d10 k3, PS)
  target mRNA inhibition: 1%

## CCCACAAGGATCCAAG (sugars k3 d10 k3, PS)
  target mRNA inhibition: 9%

## CCCACCCAGCATTACA (sugars k3 d10 k3, PS)
  target mRNA inhibition: 18%

## CCCAGCATTACAGTTC (sugars k3 d10 k3, PS)
  target mRNA inhibition: 10%

## CCCAGTTCAATACTTT (sugars k3 d10 k3, PS)
  target mRNA inhibition: 25%

## CCCCCCCGCCTCAGTT (sugars k3 d10 k3, PS)
  target mRNA inhibition: 15%

## CCCCGCCTCAGTTACA (sugars k3 d10 k3, PS)
  target mRNA inhibition: 35%

## CCCTTCCCTATATAAG (sugars k3 d10 k3, PS)
  target mRNA inhibition: 5%

## CCGAAGACACAGAGAC (sugars k3 d10 k3, PS)
  target mRNA inhibition: 2%

## CCGCACGGAAATTTTT (sugars k3 d10 k3, PS)
  target mRNA inhibition: 15%

## CCGCCTTTGTGAGGGA (sugars k3 d10 k3, PS)
  target mRNA inhibition: 14%

## CCGTCATGTTTTAGAA (sugars k3 d10 k3, PS)
  target mRNA inhibition: 58% and 61%

## CCGTTACGAAAGTCCT (sugars k3 d10 k3, PS)
  target mRNA inhibition: 67% and 56%

## CCTACCACTCCCAATT (sugars k3 d10 k3, PS)
  target mRNA inhibition: 21%

## CCTACCACTCTAAGAT (sugars k3 d10 k3, PS)
  target mRNA inhibition: 27%

## CCTAGCTTCATCAAAC (sugars k3 d10 k3, PS)
  target mRNA inhibition: -2%

## CCTATAAGGACAGCTA (sugars k3 d10 k3, PS)
  target mRNA inhibition: 15%

## CCTCAATGCCTACCGC (sugars k3 d10 k3, PS)
  target mRNA inhibition: 17%

## CCTCACAAAACCCCCG (sugars k3 d10 k3, PS)
  target mRNA inhibition: -13%

## CCTCAGTACGAAACTC (sugars k3 d10 k3, PS)
  target mRNA inhibition: 16%

## CCTCATGCTACTCTTC (sugars k3 d10 k3, PS)
  target mRNA inhibition: 54%

## CCTGAAATCCCCTAGG (sugars k3 d10 k3, PS)
  target mRNA inhibition: -4%

## CCTGAAGACAGATTAG (sugars k3 d10 k3, PS)
  target mRNA inhibition: 24%

## CCTGCCTTAAAGTTAC (sugars k3 d10 k3, PS)
  target mRNA inhibition: 20%

## CCTGGTTAGGTATGAG (sugars k3 d10 k3, PS)
  target mRNA inhibition: 19%

## CCTTCCGCCGCCTTTG (sugars k3 d10 k3, PS)
  target mRNA inhibition: 21%

## CCTTCTGAACCGGAGC (sugars k3 d10 k3, PS)
  target mRNA inhibition: -4%

## CGAAACTCCCCCATTA (sugars k3 d10 k3, PS)
  target mRNA inhibition: 15%

## CGAATTCAGGGTGAGG (sugars k3 d10 k3, PS)
  target mRNA inhibition: 68% and 87%

## CGACCTCACGGATTTT (sugars k3 d10 k3, PS)
  target mRNA inhibition: 16%

## CGACTTGCTCCCAAGA (sugars k3 d10 k3, PS)
  target mRNA inhibition: 22%

## CGATTATGGATCATGC (sugars k3 d10 k3, PS)
  target mRNA inhibition: 44% and 57%

## CGCAACTGAGCCCCAG (sugars k3 d10 k3, PS)
  target mRNA inhibition: 18%

## CGCCTCTTAAAGCACT (sugars k3 d10 k3, PS)
  target mRNA inhibition: -12%

## CGCCTTCCCGTACTTC (sugars k3 d10 k3, PS)
  target mRNA inhibition: 57%

## CGCCTTTGTGAGGGAG (sugars k3 d10 k3, PS)
  target mRNA inhibition: -3%

## CGCTCAAATCCTGATC (sugars k3 d10 k3, PS)
  target mRNA inhibition: 23%

## CGCTGCGCTTAAGAGG (sugars k3 d10 k3, PS)
  target mRNA inhibition: 10%

## CGCTTAAGAGGGCAGG (sugars k3 d10 k3, PS)
  target mRNA inhibition: 12%

## CGCTTGAGATTTGGGC (sugars k3 d10 k3, PS)
  target mRNA inhibition: 33%

## CGGAGAACAACTCGCA (sugars k3 d10 k3, PS)
  target mRNA inhibition: -4%

## CGGGCTGCAGGCTGCG (sugars k3 d10 k3, PS)
  target mRNA inhibition: 14%

## CGGTACACTCCTTCTC (sugars k3 d10 k3, PS)
  target mRNA inhibition: 40%

## CGGTTGAGAAGTGGCA (sugars k3 d10 k3, PS)
  target mRNA inhibition: -11%

## CGTAAACACCCTCATC (sugars k3 d10 k3, PS)
  target mRNA inhibition: 32%

## CGTGTTGTTTTCTCAG (sugars k3 d10 k3, PS)
  target mRNA inhibition: 23%

## CGTTTTTCAGCTTCCA (sugars k3 d10 k3, PS)
  target mRNA inhibition: 7%

## CTAACAGCACATCATG (sugars k3 d10 k3, PS)
  target mRNA inhibition: 32%

## CTAACATGCAATACTG (sugars k3 d10 k3, PS)
  target mRNA inhibition: 1%

## CTAACCCAGTTTGTCA (sugars k3 d10 k3, PS)
  target mRNA inhibition: 35%

## CTAAGACTTTAAGTTC (sugars k3 d10 k3, PS)
  target mRNA inhibition: 27%

## CTAAGATGCTAGCTTG (sugars k3 d10 k3, PS)
  target mRNA inhibition: -26%

## CTAAGCGAATGGCTTT (sugars k3 d10 k3, PS)
  target mRNA inhibition: 22%

## CTAATAGCAGCGGGAT (sugars k3 d10 k3, PS)
  target mRNA inhibition: 22%

## CTAATCACTGTCAATT (sugars k3 d10 k3, PS)
  target mRNA inhibition: -1%

## CTACAACAAGTAAGCC (sugars k3 d10 k3, PS)
  target mRNA inhibition: 7%

— the OligoGym collection
